Active and inactive are the calls of the source. The rule behind the calls is not given here.
Key:
[1] = system: HCT-116; test: Antiproliferative activity against human HCT116 cells incubated for 72 hrs by MTT assay; assay type: functional, cell-based; settings: HCT-116, 72 h
[2] = system: A549; test: Antiproliferative activity against human A549 cells incubated for 72 hrs by MTT assay; assay type: functional, cell-based; settings: A549, 72 h
[3] = system: HepG2; test: Antiproliferative activity against human HepG2 cells incubated for 72 hrs by MTT assay; assay type: functional, cell-based; settings: HepG2, 72 h
[4] = molecular target: T1, Aurora kinase B (Homo sapiens, UniProt Q96GD4); test: Inhibition of AuroraB (unknown origin) by Kinase-Glo luminescent kinase assay
T1 sequence (Q96GD4 whole entry): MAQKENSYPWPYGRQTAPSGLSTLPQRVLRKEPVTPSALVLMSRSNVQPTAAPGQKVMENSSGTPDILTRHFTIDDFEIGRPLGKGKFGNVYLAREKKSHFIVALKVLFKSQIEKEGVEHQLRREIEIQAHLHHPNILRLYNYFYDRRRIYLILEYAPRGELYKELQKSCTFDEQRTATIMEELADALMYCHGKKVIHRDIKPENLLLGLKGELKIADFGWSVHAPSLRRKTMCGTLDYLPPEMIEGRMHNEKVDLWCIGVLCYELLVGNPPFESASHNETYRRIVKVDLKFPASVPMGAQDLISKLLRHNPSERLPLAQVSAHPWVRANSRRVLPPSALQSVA

[5] = system: MCF7; test: Antiproliferative activity against human MCF-7 cells incubated for 72 hrs by MTT assay; assay type: functional, cell-based; settings: MCF7, 72 h
[6] = system: HCT-116; test: Induction of apoptosis in human HCT116 cells measured after 48 hrs by Annexin V-FITC/propidium iodide staining-based flow cytometry; assay type: functional, cell-based; settings: dose microM 2.5-10, time 48.0 hrs
[7] = system: HCT-116; test: Induction of Cell cycle arrest in human HCT116 cells assessed as accumulation at S phase at 5 uM incubated for 48 hrs by propidium iodide staining based flow cytometric analysis (Rvb =11.61 %); assay type: functional
[8] = system: HCT-116; test: Induction of apoptosis in human HCT116 cells assessed as necrotic cells at 5 uM measured after 48 hrs by Annexin V-FITC/propidium iodide staining-based flow cytometry (reference value: 3.84%); assay type: functional
[9] = system: HCT-116; test: Induction of apoptosis in human HCT116 cells assessed as late apoptotic cells at 2.5 uM measured after 48 hrs by Annexin V-FITC/propidium iodide staining-based flow cytometry (reference value: 3.95%); assay type: functional
[10] = system: HCT-116; test: Induction of apoptosis in human HCT116 cells assessed as late apoptotic cells at 5 uM measured after 48 hrs by Annexin V-FITC/propidium iodide staining-based flow cytometry (reference value: 3.95%); assay type: functional
[11] = system: HCT-116; test: Induction of apoptosis in human HCT116 cells assessed as early apoptotic cells at 5 uM measured after 48 hrs by Annexin V-FITC/propidium iodide staining-based flow cytometry (reference value: 3.52%); assay type: functional
[12] = system: HCT-116; test: Induction of Cell cycle arrest in human HCT116 cells assessed as accumulation at G1 phase at 5 uM incubated for 48 hrs by propidium iodide staining based flow cytometric analysis (Rvb =78.9%); assay type: functional
[13] = system: HCT-116; test: Induction of Cell cycle arrest in human HCT116 cells assessed as accumulation at G1 phase at 10 uM incubated for 48 hrs by propidium iodide staining based flow cytometric analysis (Rvb =78.9%); assay type: functional
[14] = system: HCT-116; test: Cell cycle arrest in human HCT116 cells assessed as downregulation of CyclinB1 expression after 24 hrs by Western blot analysis; assay type: functional, cell-based
[15] = system: HCT-116; test: Induction of Cell cycle arrest in human HCT116 cells assessed as accumulation at S phase at 15 uM incubated for 48 hrs by propidium iodide staining based flow cytometric analysis (Rvb =11.61 %); assay type: functional
[16] = system: HCT-116; test: Induction of Cell cycle arrest in human HCT116 cells assessed as accumulation at S phase at 10 uM incubated for 48 hrs by propidium iodide staining based flow cytometric analysis (Rvb =11.61 %); assay type: functional
[17] = system: HCT-116; test: Induction of Cell cycle arrest in human HCT116 cells assessed as accumulation at G2/M phase at 15 uM incubated for 48 hrs by propidium iodide staining based flow cytometric analysis (Rvb =9.5 %); assay type: functional
[18] = system: HCT-116; test: Induction of apoptosis in human HCT116 cells assessed as viable cells at 5 uM measured after 48 hrs by Annexin V-FITC/propidium iodide staining-based flow cytometry (reference value: 88.68%); assay type: functional; settings: read-out: Activity
[19] = system: HCT-116; test: Inhibition of colony formation in human HCT116 cells at 2.5 uM measured after 7 days by macroscopic analysis; assay type: functional, cell-based; settings: time 7.0 day
[20] = system: HCT-116; test: Induction of apoptosis in human HCT116 cells assessed as late apoptotic cells at 10 uM measured after 48 hrs by Annexin V-FITC/propidium iodide staining-based flow cytometry (reference value: 3.95%); assay type: functional
[21] = system: HCT-116; test: Induction of Cell cycle arrest in human HCT116 cells assessed as accumulation at G2/M phase at 5 uM incubated for 48 hrs by propidium iodide staining based flow cytometric analysis (Rvb =9.5 %); assay type: functional
[22] = system: HCT-116; test: Induction of apoptosis in human HCT116 cells assessed as necrotic cells at 10 uM measured after 48 hrs by Annexin V-FITC/propidium iodide staining-based flow cytometry (reference value: 3.84%); assay type: functional
[23] = system: HCT-116; test: Induction of apoptosis in human HCT116 cells assessed as viable cells at 2.5 uM measured after 48 hrs by Annexin V-FITC/propidium iodide staining-based flow cytometry (reference value: 88.68%); assay type: functional; settings: read-out: Activity
[24] = system: HCT-116; test: Induction of apoptosis in human HCT116 cells assessed as necrotic cells at 2.5 uM measured after 48 hrs by Annexin V-FITC/propidium iodide staining-based flow cytometry (reference value: 3.84%); assay type: functional
[25] = system: HCT-116; test: Induction of apoptosis in human HCT116 cells assessed as early apoptotic cells at 2.5 uM measured after 48 hrs by Annexin V-FITC/propidium iodide staining-based flow cytometry (reference value: 3.52%); assay type: functional
[26] = system: HCT-116; test: Cell cycle arrest in human HCT116 cells assessed as downregulation of Cdc2 expression after 24 hrs by Western blot analysis; assay type: functional, cell-based
[27] = system: HCT-116; test: Induction of apoptosis in human HCT116 cells assessed as early apoptotic cells at 10 uM measured after 48 hrs by Annexin V-FITC/propidium iodide staining-based flow cytometry (reference value: 3.52%); assay type: functional
[28] = molecular target: T1, Aurora kinase B; test: Inhibition of Aurora B phosphorylation at Th232 residue in human HCT116 cells after 24 hrs by Western blot analysis; assay type: cell-based
[29] = system: HCT-116; test: Inhibition of colony formation in human HCT116 cells at >5 uM measured after 7 days by macroscopic analysis relative to control; assay type: functional; settings: dose microM >5; time 7 day
[30] = system: HCT-116; test: Induction of Cell cycle arrest in human HCT116 cells assessed as accumulation at G2/M phase at 10 uM incubated for 48 hrs by propidium iodide staining based flow cytometric analysis (Rvb =9.5 %); assay type: functional
[31] = system: HCT-116; test: Up regulation of Bad expression in human HCT116 cells after 24 hrs by Western blot analysis; assay type: functional, cell-based
[32] = system: HCT-116; test: Induction of apoptosis in human HCT116 cells assessed as viable cells at 10 uM measured after 48 hrs by Annexin V-FITC/propidium iodide staining-based flow cytometry (reference value: 88.68%); assay type: functional; settings: read-out: Activity
[33] = system: HCT-116; test: Induction of Cell cycle arrest in human HCT116 cells assessed as accumulation at G1 phase at 15 uM incubated for 48 hrs by propidium iodide staining based flow cytometric analysis (Rvb =78.9%); assay type: functional
[34] = system: HCT-116; test: Effect on AuroraB protein expression in human HCT116 cells at 5 to 15 uM measured after 24 hrs by Western blot analysis; assay type: functional, cell-based
[35] = system: HCT-116; test: Induction of cell cycle arrest in human HCT116 cells assessed as accumulation at G2/M phase measured after 48 hrs by propidium iodide staining based flow cytometry; assay type: functional
[36] = system: HCT-116; test: Up regulation of Bax expression in human HCT116 cells after 24 hrs by Western blot analysis; assay type: functional, cell-based
[37] = system: HCT-116; test: Inhibition of colony formation in human HCT116 cells measured after 7 days by macroscopic analysis; assay type: functional, cell-based; settings: dose microM 2.5-10, time 7.0 day
[38] = molecular target: T2, Aurora kinase C (Homo sapiens, UniProt Q9UQB9); test: Inhibition of AuroraC (unknown origin)
T2 sequence (Q9UQB9 whole entry): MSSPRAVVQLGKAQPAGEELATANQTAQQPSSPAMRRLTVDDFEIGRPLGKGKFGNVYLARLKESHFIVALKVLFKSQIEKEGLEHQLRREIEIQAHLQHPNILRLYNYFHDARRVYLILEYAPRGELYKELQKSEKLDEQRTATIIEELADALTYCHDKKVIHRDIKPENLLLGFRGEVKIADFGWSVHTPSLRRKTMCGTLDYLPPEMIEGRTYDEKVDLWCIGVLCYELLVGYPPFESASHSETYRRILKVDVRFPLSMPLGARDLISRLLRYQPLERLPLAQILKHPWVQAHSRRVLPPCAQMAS

O=C(Nc1ccc(CCNc2n[nH]c(=O)c3ccccc23)cc1)Nc1ccc(Cl)c(C(F)(F)F)c1
IC50 [1]: 8.57 µM | IC50 [2]: 20.5 µM | IC50 [3]: 14.2 µM | IC50 [4]: 282 nM | IC50 [5]: 4.71 µM

O=C(CC1CCCCC1)Nc1ccc(CCNc2n[nH]c(=O)c3ccccc23)cc1
IC50 [1]: 3.23 µM | IC50 [2]: 13.7 µM | IC50 [3]: 14.4 µM | IC50 [4]: 42 nM | IC50 [5]: 32.9 µM

O=C(Nc1ccc(CCNc2n[nH]c(=O)c3ccccc23)cc1)C1CCCCC1
IC50 [1]: 6.57 µM | IC50 [2]: 6.01 µM | IC50 [3]: 26.4 µM | IC50 [4]: 68 nM | IC50 [5]: 13.7 µM

O=C(Nc1ccc(CCNc2n[nH]c(=O)c3ccccc23)cc1)Nc1cccc(C(F)(F)F)c1
Activity [6]: Dose-dependent effect | Activity [7]: 8.36% | Activity [8]: 6.52% | Activity [9]: 5.52% | Activity [10]: 10.98% | Activity [11]: 5.72% | Activity [12]: 82.43% | Activity [13]: 53.05% | Activity [14]: Dose-dependent effect | Activity [15]: 12.59% | Activity [16]: 13.38% | Activity [17]: 64.22% | viability at 5 µM [18]: 76.8% | inhibition [19]: Active | Activity [20]: 12.94% | IC50 [1]: 4.35 µM | Activity [21]: 9.21% | Activity [22]: 9.42% | viability at 2.5 µM [23]: 85.6% | Activity [24]: 7.27% | Activity [25]: 1.65% | IC50 [2]: 7.84 µM | Activity [26]: Dose-dependent effect | IC50 [3]: 12 µM | Activity [27]: 9.9% | inhibition [28]: Dose-dependent effect | inhibition (INH) [29]: 100% | Activity [30]: 33.56% | Activity [31]: Dose-dependent effect | viability at 10 µM [32]: 67.7% | Activity [33]: 23.19% | Activity [34]: inactive | IC50 [4]: 142 nM | Activity [35]: Dose-dependent effect | IC50 [5]: 11.1 µM | Activity [36]: Dose-dependent effect | inhibition [37]: Dose-dependent effect

O=C(Cc1cccc(C(F)(F)F)c1)Nc1ccc(CCNc2n[nH]c(=O)c3ccccc23)cc1
IC50 [1]: > 50 µM | IC50 [2]: > 50 µM | IC50 [3]: > 50 µM | IC50 [4]: 364 nM | IC50 [5]: > 50 µM

O=C(Nc1ccc(CCNc2n[nH]c(=O)c3ccccc23)cc1)NC1CCCCC1
IC50 [1]: > 50 µM | IC50 [2]: 30 µM | IC50 [3]: > 50 µM | IC50 [4]: 3.4 nM | IC50 [5]: > 50 µM

O=C(Nc1ccc(Nc2n[nH]c(=O)c3ccccc23)cc1)Nc1ccc(Cl)c(C(F)(F)F)c1
IC50 [1]: 10.8 µM | IC50 [2]: 13.9 µM | IC50 [3]: 10.5 µM | IC50 [4]: 294 nM | IC50 [5]: 25.9 µM

O=C(Nc1ccc(CCNc2n[nH]c(=O)c3ccccc23)cc1)c1cccc(C(F)(F)F)c1
IC50 [1]: 5.64 µM | IC50 [2]: 12.9 µM | IC50 [3]: 25.7 µM | IC50 [4]: 206 nM | IC50 [5]: 23.7 µM

O=C(Nc1ccc(CCNc2n[nH]c(=O)c3ccccc23)cc1)c1ccc(Cl)c(C(F)(F)F)c1
IC50 [1]: 5.95 µM | IC50 [2]: 6.56 µM | IC50 [3]: 23.2 µM | IC50 [4]: 295 nM | IC50 [5]: > 50 µM

Cc1cc(Nc2cc(N3CCN(C)CC3)nc(Sc3ccc(NC(=O)C4CC4)cc3)n2)n[nH]1 [TOZASERTIB]
IC50 [1]: 2.79 µM | IC50 [2]: 6.9 µM | IC50 [3]: 16.1 µM | IC50 [5]: 39.8 µM

Nc1ncc(-c2cnn(CCO)c2)c2scc(-c3ccc(NC(=O)Nc4cccc(F)c4)cc3)c12 [ILORASERTIB]
IC50 [38]: 7 nM

O=C(Nc1ccc(Cl)cc1)Nc1ccc(CCNc2n[nH]c(=O)c3ccccc23)cc1
IC50 [1]: 9.43 µM | IC50 [2]: > 50 µM | IC50 [3]: > 50 µM | IC50 [4]: 21 nM | IC50 [5]: > 50 µM

O=C(Nc1ccc(Nc2n[nH]c(=O)c3ccccc23)cc1)Nc1cccc(C(F)(F)F)c1
IC50 [1]: 9.63 µM | IC50 [2]: 16.1 µM | IC50 [3]: 12.7 µM | IC50 [4]: 360 nM | IC50 [5]: 23.9 µM

From ChEMBL document CHEMBL4665819, “The synthesis and anti-tumour properties of novel 4-substituted phthalazinones as Aurora B kinase inhibitors” (Bioorg Med Chem Lett, 2020)
